Common to all, as to assay type: biochemical
The target in one assay is T1, Aurora A (Homo sapiens, UniProt O14965).
T1 sequence (O14965 1-403): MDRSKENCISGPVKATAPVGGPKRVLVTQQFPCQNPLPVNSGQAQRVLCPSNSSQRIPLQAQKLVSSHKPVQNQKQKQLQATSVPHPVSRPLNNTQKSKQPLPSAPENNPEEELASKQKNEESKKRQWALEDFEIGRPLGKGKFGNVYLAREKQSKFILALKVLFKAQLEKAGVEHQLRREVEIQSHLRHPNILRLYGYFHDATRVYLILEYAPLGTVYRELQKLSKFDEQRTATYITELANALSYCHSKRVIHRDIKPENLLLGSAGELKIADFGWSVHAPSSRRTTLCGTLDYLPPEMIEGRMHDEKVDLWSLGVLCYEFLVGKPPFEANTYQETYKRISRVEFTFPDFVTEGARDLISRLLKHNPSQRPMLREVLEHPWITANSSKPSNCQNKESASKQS
Put plainly: Aurora A counter screen. Conditions: read-out: AUR-A (IC50). The protocol: (§1) To identify small molecule NUAK inhibitors, a biochemical NUAK2 enzymatic assay was outsourced to Eurofins. This assay was done radiometrically using full-length, recombinant enzyme. NUAK2 (h) was incubated with 8 mM MOPS pH 7.0, 0.2 mM EDTA, 300 μM […], 10 mM magnesium acetate and […] (specific activity and concentration as required). The reaction was initiated by the addition of the Mg/ATP mix. After incubation for 40 minutes at room temperature, the reaction was stopped by the addition of phosphoric acid to a concentration of 0.5%. 10 μL of the reaction was then spotted onto a P30 filter mat and washed four times for 4 minutes in 0.425% phosphoric acid and once in methanol prior to drying and scintillation counting. Compounds were routinely counter screened against Aurora A and NUAK1. The results are shown in Table 1 where IC50s are reported the following ranges: A: 0.1-10 nM; B: 11-100 nM; C: 101-1000 nM; D: >1000 nM for the compounds of Formula I)
(In general: A counterscreen serves to expose hits that act by an unwanted route or on another target.)

Another assay addresses T2, NUAK2 (h) (Homo sapiens, UniProt Q9H093).
T2 construct: This assay was done radiometrically using full-length, recombinant enzyme; purchased Eurofins
T2 sequence (Q9H093 1-628): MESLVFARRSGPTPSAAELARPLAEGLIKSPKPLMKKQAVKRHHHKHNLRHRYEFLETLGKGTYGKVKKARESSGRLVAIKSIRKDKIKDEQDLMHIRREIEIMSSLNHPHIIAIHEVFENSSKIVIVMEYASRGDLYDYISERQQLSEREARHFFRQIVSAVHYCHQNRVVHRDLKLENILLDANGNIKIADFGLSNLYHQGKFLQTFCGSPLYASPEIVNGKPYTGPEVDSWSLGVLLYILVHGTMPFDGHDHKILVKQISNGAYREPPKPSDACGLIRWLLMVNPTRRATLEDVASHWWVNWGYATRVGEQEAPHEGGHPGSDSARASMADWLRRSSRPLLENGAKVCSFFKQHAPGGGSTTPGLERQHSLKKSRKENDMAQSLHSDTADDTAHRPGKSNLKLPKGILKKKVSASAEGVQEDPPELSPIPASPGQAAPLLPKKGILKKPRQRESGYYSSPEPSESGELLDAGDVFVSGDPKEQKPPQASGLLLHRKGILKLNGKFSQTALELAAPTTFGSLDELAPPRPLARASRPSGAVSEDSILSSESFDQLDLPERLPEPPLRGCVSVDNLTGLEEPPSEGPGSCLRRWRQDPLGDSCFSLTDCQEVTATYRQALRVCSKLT
Kind of assay: NUAK2 enzymatic assay (radiometric, Eurofins). Conditions: radiometric, full-length recombinant enzyme. How it is done:
as §1

For another assay, the target named is T3, NUAK1 (Homo sapiens, UniProt O60285).
T3 sequence (O60285 1-661): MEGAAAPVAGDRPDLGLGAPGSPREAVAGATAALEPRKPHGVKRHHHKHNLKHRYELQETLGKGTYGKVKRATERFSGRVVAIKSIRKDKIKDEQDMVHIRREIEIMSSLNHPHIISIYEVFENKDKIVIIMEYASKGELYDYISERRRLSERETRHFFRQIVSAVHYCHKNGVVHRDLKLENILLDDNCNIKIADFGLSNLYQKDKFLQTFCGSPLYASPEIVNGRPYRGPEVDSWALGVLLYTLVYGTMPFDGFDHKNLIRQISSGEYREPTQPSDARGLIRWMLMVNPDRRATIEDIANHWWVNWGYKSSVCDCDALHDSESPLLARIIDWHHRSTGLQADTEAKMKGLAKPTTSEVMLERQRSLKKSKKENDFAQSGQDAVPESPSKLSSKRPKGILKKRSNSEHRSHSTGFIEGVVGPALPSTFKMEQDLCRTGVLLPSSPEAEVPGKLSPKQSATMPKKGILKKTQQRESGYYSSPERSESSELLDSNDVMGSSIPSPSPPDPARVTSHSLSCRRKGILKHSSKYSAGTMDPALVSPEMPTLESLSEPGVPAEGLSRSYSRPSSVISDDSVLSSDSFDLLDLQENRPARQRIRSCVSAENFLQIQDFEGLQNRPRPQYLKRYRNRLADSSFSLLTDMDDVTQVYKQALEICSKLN
Put plainly: NUAK1 counter screen. How it is done: as §1

`CN1CCc2cc(OC(F)F)c(Nc3ncc(Cl)c(Nc4ccsc4C(N)=O)n3)cc2C1` [Compound I-26, 3-((5-chloro-2-((6-(difluoromethoxy)-2-methyl-1,2,3,4-tetrahydroisoquinolin-7-yl)amino)pyrimidin-4-yl)amino)thiophene-2-carboxamide]: the IC50 (commonly the concentration that inhibits the measured activity by half) lay in the range of 0.101 to 1 µM on Aurora A, 0.011 to 0.1 µM on NUAK2 (h) and 0.101 to 1 µM against NUAK1.
For `CN1CCN(c2ccc(Nc3ncc(C(F)(F)F)c(Nc4ccsc4C(N)=O)n3)c(OC(F)F)c2)CC1` [Compound I-27, 3-((2-((2-(difluoromethoxy)-4-(4-methylpiperazin-1-yl)phenyl)amino)-5-(trifluoromethyl)pyrimidin-4-yl)amino)thiophene-2-carboxamide], the IC50 on Aurora A fell in the range of 0.101 to 1 µM; at NUAK2 (h) it was 0.0001 to 0.01 µM; against NUAK1 it was 0.0001 to 0.01 µM.
For `NC(=O)c1sccc1Nc1nc(Nc2ccc(N3CCCC3)cc2OC(F)F)ncc1Cl` [Compound I-28, 3-((5-chloro-2-((2-(difluoromethoxy)-4-(pyrrolidin-1-yl)phenyl)amino)pyrimidin-4-yl)amino)thiophene-2-carboxamide], the results for the IC50 at Aurora A, at NUAK2 (h) and at NUAK1 were 0.101 to 1 µM, 0.101 to 1 µM and 0.011 to 0.1 µM, respectively.
Regarding `C[C@H]1CN(C)CCN1c1ccc(Nc2ncc(Cl)c(Nc3ccsc3C(N)=O)n2)c(OC(F)F)c1` [Compound I-29, (S)-3-((5-chloro-2-((2-(difluoromethoxy)-4-(2,4-dimethylpiperazin-1-yl)phenyl)amino)pyrimidin-4-yl)amino)thiophene-2-carboxamide], the 50% inhibitory concentration (IC50) was in the range of 0.101 to 1 µM at Aurora A, 0.011 to 0.1 µM on NUAK2 (h) and 0.011 to 0.1 µM on NUAK1.
`NC(=O)c1ccsc1Nc1nc(Nc2ccc(N3CCCC3)cc2OC(F)F)ncc1Cl` [Compound I-31, 2-((5-chloro-2-((2-(difluoromethoxy)-4-(pyrrolidin-1-yl)phenyl)amino)pyrimidin-4-yl)amino)thiophene-3-carboxamide]: the half-maximal inhibitory concentration (IC50) on Aurora A was more than 1 µM; at NUAK2 (h), more than 1 µM; against NUAK1, 0.101 to 1 µM.
As to `CN1C2CCC1CN(c1ccc(Nc3ncc(Cl)c(Nc4sccc4C(N)=O)n3)c(OC(F)F)c1)C2` [Compound I-32, 2-((5-chloro-2-((2-(difluoromethoxy)-4-(8-methyl-3,8-diazabicyclo[3.2.1]octan-3-yl)phenyl)amino)pyrimidin-4-yl)amino)thiophene-3-carboxamide], the IC50 on Aurora A lay in the range of 0.101 to 1 µM; on NUAK2 (h), 0.011 to 0.1 µM; at NUAK1, 0.011 to 0.1 µM.
Regarding `NC(=O)c1sccc1Nc1nc(Nc2ccc(N3CCN(CC(F)(F)F)CC3)cc2OC(F)F)ncc1Cl` [Compound I-33, 3-((5-chloro-2-((2-(difluoromethoxy)-4-(4-(2,2,2-trifluoroethyl)piperazin-1-yl)phenyl)amino)pyrimidin-4-yl)amino)thiophene-2-carboxamide], the IC50 on Aurora A, at NUAK2 (h) and on NUAK1 was 0.101 to 1 µM throughout.
As to `NC(=O)c1ccsc1Nc1nc(Nc2ccc(N3CCN(CC(F)(F)F)CC3)cc2OC(F)F)ncc1Cl` [Compound I-34, 2-((5-chloro-2-((2-(difluoromethoxy)-4-(4-(2,2,2-trifluoroethyl)piperazin-1-yl)phenyl)amino)pyrimidin-4-yl)amino)thiophene-3-carboxamide], the 50% inhibitory concentration (IC50) at Aurora A, at NUAK2 (h) and against NUAK1 was 0.101 to 1 µM each time.
Regarding `CN1CCN(c2ccc(Nc3ncc(F)c(Nc4ccsc4C(N)=O)n3)c(OC(F)F)c2)CC1` [Compound I-37, 3-((2-((2-(difluoromethoxy)-4-(4-methylpiperazin-1-yl)phenyl)amino)-5-fluoropyrimidin-4-yl)amino)thiophene-2-carboxamide], the values for the IC50 on Aurora A, on NUAK2 (h) and against NUAK1 were 0.101 to 1 µM, 0.011 to 0.1 µM and 0.011 to 0.1 µM, respectively.
